Values of other authors as cited in US20020146463A1, “Health promoting compositions” (priority 2000, published 2002).

Key:
[1] = 500 patients with skin conditions, 180-300 mg beta carotene/day for 10 years
[2] = high versus low levels of folic acid in diet
[3] = three recent trials

Question: For `CC1=C(/C=C/C(C)=C/C=C/C(C)=C/C=C/C=C(C)/C=C/C=C(C)/C=C/C2=C(C)CCCC2(C)C)C(C)(C)CCC1` [beta carotene], which adverse effects [1] is on record?
Answer: without report of adverse effects

Question: Which “less likely to suffer a fatal heart attack” value [2] does the source give for `Nc1nc2ncc(CNc3ccc(C(=O)N[C@@H](CCC(=O)O)C(=O)O)cc3)nc2c(=O)[nH]1` [folic acid] here?
Answer: 69%

Question: With vitamin E as the compound, how does the “reduction of the risk of heart attacks” value [3] read?
Answer: more than half
